The values that follow come from US4297359A, “Anti-ulcer compositions containing certain pyridyl oxime ethers” (ACF Chemiefarma NV, priority 1978, dated 1981).

Data set [1] has as its system androgen. Particulars: J. Pharm. Sci. 58, 138-141 (1969); cited from earlier work.
The test system of data set [2] is gastric secretion. Kind of data set: Effects on Gastric Secretion in the Pyloric Ligated Rat (method of Shay et al.). Type of data set: in vivo. The following applies: intraduodenal, 100 mg/kg i.d., 3 hours. An excerpt:
1. Effects on Gastric Secretion in the Pyloric Ligated Rat
The method as described by Shay et al. (Gastroenterol. 26, 906 (1945)) was used. After overnight starvation the pylorus of a rat was ligated under halothane aenesthesia and the compound under test or vehicle only administered intraduodenally and the rats allowed to recover. They were sacrificed three hours later and the gastric juice removed. After measurement of the volume of secretion, its hydrogen ion concentration, [H^+ ], was determined by titration with 0.5 n NaOH to pH 7. Groups of 4-6 animals were used for each treatment and the inhibitory effect of the compound was ascertained by comparison of the mean values obtained with those from a simultaneously set up control group of animals which received vehicle only. Students `t` test was applied for significance between groups. The mean values for % inhibition obtained for a number of experiments are shown in the following Table 1, the dosage being 100 mg/kg i.d.

Data set [3] has as its system indomethacin induced gastric damage. The data set is described as follows: Anti-ulcer activity: inhibition of indomethacin induced gastric damage in the rat (method of Elegbe). The class given is in vivo. Particulars: po, 5 h; for inhibition in vivo at 50 mg/kg: 50 mg/kg (footnote *) orally; for inhibition in vivo at 100 mg/kg: read-out: % Inhibition (of gastric damage). On the procedure: Rats were starved overnight, given indomethacin subcutaneously (15 mg/kg) and sacrificed 5 hours later. Stomachs were inflated with 0.9% saline, cut along the greater curvature, pinned out and scored for gastric damage by the following system:
Score 1-3 according to the degree of erythema and slight haemorrhage.
Score 4-6 according to the degree of mucosal erosion.
Score 7-9 according to the depth of gastric damage.
Compound or vehicle was administered orally 30 minutes prior to, and at 2 hours after dosing with indomethacin. Mean values per treatment were obtained using the above scoring system and the Mann Witney test applied for significance between such values.

For data set [4], the system named is acetylcholine. The following applies: Farmaco. Ed. Sci. 19, 668-702 (1964); cited from earlier work.
Where [5] appears, read: read-out: % Inhibition, Volume (of gastric secretion).
[6] abbreviates: read-out: % Inhibition, [H^+ ] (hydrogen ion concentration of gastric juice).
Setting [7] is: 30 minutes prior to and 2 hours after indomethacin (15 mg/kg s.c.).
Setting [8] is: 100 mg/kg orally, 30 minutes prior to and 2 hours after indomethacin (15 mg/kg s.c.).

Where two headings read alike, the source gives them in different places.

In the case of `COc1ccc(C(=NOCCN(C)C)c2cccs2)cc1` [4-methoxyphenyl 2-thienyl ketone, O-dimethylaminoethyl oxime], in data set [1], the anti-androgenic activity result is given as “showed anti-androgenic activity” and the “effective dose relative to toxic dose” value is “the effective dose was very close to the toxic dose”.
For the compound `CON=C(c1ccccc1)c1ccncc1` [Compound 1, Phenyl 4-pyridinyl ketone, O-methyl oxime], the results for the inhibition in vivo at 100 mg/kg in data set [2] (setting [5]) and in data set [2] (setting [6]) were 82% and 41%, respectively. Also, the inhibition in vivo at 50 mg/kg in data set [3] (setting [7]) came to 86%.
As to `CO/N=C(\c1ccccc1)c1ccccn1` [Compound 2, phenyl 2-pyridinyl ketone, O-methyl oxime], the inhibition in vivo at 100 mg/kg is 76% in data set [2] (setting [5]) and 33% in data set [2] (setting [6]). This compound showed an inhibition in vivo at 50 mg/kg in data set [3] (setting [7]) of 79%.
The like results for `CO/N=C(\c1ccccc1)c1cccnc1` [Compound 3, phenyl 3-pyridinyl ketone, O-methyl oxime] were, in that order, 87%, 50% and 82%.
As for `CO/N=C(\c1ccccc1)c1ccncc1` [Compound 4, phenyl 4-pyridinyl ketone, O-methyl oxime], the inhibition in vivo at 100 mg/kg in data set [2] (setting [5]) is 82%; in data set [2] (setting [6]), 50%; in data set [3] (setting [8]), 77%.
`CON=C(c1ccncc1)c1ccc(C)cc1` [Compound 6, 4-methylphenyl 4-pyridinyl ketone, O-methyl oxime]: the inhibition in vivo at 100 mg/kg in data set [2] (setting [5]) stood at 81%; in data set [2] (setting [6]), 89%; in data set [3] (setting [8]), 80%.
`CO/N=C(\c1ccncc1)c1ccc(OC)cc1` [Compound 7, 4-methoxyphenyl 4-pyridinyl ketone, O-methyl oxime]: the inhibition in vivo at 100 mg/kg in data set [3] (setting [8]) is 88%.
For the compound `CO/N=C(\c1ccncc1)c1ccc(F)cc1` [Compound 8, 4-fluorophenyl 4-pyridinyl ketone, O-methyl oxime], the inhibition in vivo at 100 mg/kg in data set [2] (setting [5]) amounted to 76%; in data set [2] (setting [6]), 11%; in data set [3] (setting [8]) it was 100%.
As to `CO/N=C(\c1ccncc1)c1ccc(Cl)cc1` [Compound 9, 4-chlorophenyl 4-pyridinyl ketone, O-methyl oxime], in data set [3] (setting [8]), the inhibition in vivo at 100 mg/kg was 80%.
As for `CON=C(c1ccncc1)c1ccc(Cl)c(Cl)c1` [Compound 10, 3,4-dichlorophenyl 4-pyridinyl ketone, O-methyl oxime], in data set [2] (setting [6]), the inhibition in vivo at 100 mg/kg turned out to be 49%.
Regarding `CON=C(c1ccccn1)c1cccs1` [Compound 11, 2-pyridinyl 2-thienyl ketone, O-methyl oxime], the values for the inhibition in vivo at 100 mg/kg in data set [2] (setting [5]), in data set [2] (setting [6]) and in data set [3] (setting [8]) were 84%, 36% and 78%, respectively.
Turning to `CON=C(c1ccsc1)c1ccccn1` [Compound 12, 2-pyridinyl 3-thienyl ketone, O-methyl oxime], the inhibition in vivo at 100 mg/kg in data set [2] (setting [5]) came to 78%; in data set [2] (setting [6]) it was 20%; in data set [3] (setting [8]) it was 100%.
In the case of `CON=C(c1ccncc1)c1cccs1` [Compound 14, 4-pyridinyl 2-thienyl ketone, O-methyl oxime], in data set [3] (setting [8]), the inhibition in vivo at 100 mg/kg turned out to be 77%.
On to `CON=C(Cc1ccccn1)c1ccccc1` [Compound 16, phenyl 2-pyridinylmethyl ketone, O-methyl oxime], for which the inhibition in vivo at 100 mg/kg in data set [2] (setting [5]) worked out at 46%; in data set [2] (setting [6]) it was 25%; in data set [3] (setting [8]), 72%.
In the same order, the values of `CON=C(c1ccccn1)c1ccccn1` [Compound 17, di-2-pyridinyl ketone, O-methyl oxime] are 83%, 14% and 76%.
Turning to `CON=C(c1ccncc1)c1ccc(C(F)(F)F)cc1` [Compound 18, 4-pyridinyl 4-trifluoromethylphenyl ketone, O-methyl oxime], in data set [2] (setting [5]), the inhibition in vivo at 100 mg/kg turned out to be 59%.
On to `CON=C(c1ccncc1)c1ccc(CO)cc1` [Compound 19, 4-hydroxymethylphenyl 4-pyridinyl ketone, O-methyl oxime], for which the inhibition in vivo at 100 mg/kg was 66% in data set [2] (setting [5]), 35% in data set [2] (setting [6]) and 71% in data set [3] (setting [8]).
As for `N#CCON=C(c1ccccc1)c1ccncc1` [Compound 20, Phenyl 4-pyridinyl ketone, O-cyanomethyl oxime], the inhibition in vivo at 100 mg/kg in data set [3] was 96%.
In the case of `CCON=C(c1ccccc1)c1ccncc1` [Compound 21, phenyl 4-pyridinyl ketone, O-ethyl oxime], the inhibition in vivo at 100 mg/kg in data set [2] (setting [5]) came out at 77%; in data set [2] (setting [6]), 24%. In data set [3] (setting [7]), this compound had an inhibition in vivo at 50 mg/kg of 100%.
Take `C=CCON=C(c1ccccc1)c1ccncc1` [Compound 22, phenyl 4-pyridinyl ketone, O-allyl oxime]: the inhibition in vivo at 100 mg/kg in data set [2] (setting [5]) was 76%; in data set [3] (setting [8]), 79%.
As to `C#CCON=C(c1ccccc1)c1ccncc1` [Compound 23, phenyl 4-pyridinyl ketone, O-propargyl oxime], in data set [2] (setting [5]), the inhibition in vivo at 100 mg/kg was 81%.
In the case of `CN(C)CCON=C(c1ccccc1)c1ccccn1` [Compound 24, phenyl 2-pyridinyl ketone, O-2-N,N-dimethylaminoethyl oxime], the results for the inhibition in vivo at 100 mg/kg in data set [2] (setting [5]), in data set [2] (setting [6]) and in data set [3] (setting [8]) were 81%, 36% and 100%, respectively.
The like results for `CN(C)CCCON=C(c1ccccc1)c1ccccn1` [Compound 25, phenyl 2-pyridinyl ketone, O-3-N,N-dimethylaminopropyl oxime] were, in that order, 91%, 65% and 77%.
Consider `CN(C)CCON=C(c1ccccc1)c1cccnc1` [Compound 26, phenyl 3-pyridinyl ketone, O-2-N,N-dimethylaminoethyl oxime], for which the inhibition in vivo at 100 mg/kg in data set [2] (setting [5]) was 84%.
With `CN(C)CCCON=C(c1ccccc1)c1cccnc1` [Compound 27, phenyl 3-pyridinyl ketone, O-3-N,N-dimethylaminopropyl oxime], the inhibition in vivo at 100 mg/kg in data set [2] (setting [5]) stood at 85%.
Turning to `CN(C)CCON=C(c1ccccc1)c1ccncc1` [Compound 28, phenyl 4-pyridinyl ketone, O-2-N,N-dimethylaminoethyl oxime], the inhibition in vivo at 100 mg/kg in data set [2] (setting [5]) was 83%; in data set [2] (setting [6]), 92%; in data set [3] (setting [8]), 92%.
On to `CN(C)CCCON=C(c1ccccc1)c1ccncc1` [Compound 29, phenyl 4-pyridinyl ketone, O-3-N,N-dimethylaminopropyl oxime], for which the inhibition in vivo at 100 mg/kg in data set [2] (setting [5]) amounted to 72%; in data set [2] (setting [6]), 45%; in data set [3] (setting [8]), 65%.
For the compound `CN(C)CCCON=C(c1ccccn1)c1cccs1` [Compound 30, 2-pyridinyl 2-thienyl ketone, O-3-N,N-dimethylaminopropyl oxime], the inhibition in vivo at 100 mg/kg was found to be 78% in data set [2] (setting [5]), 64% in data set [2] (setting [6]) and 77% in data set [3] (setting [8]).
Turning to `CN(C)CCCON=C(c1ccccn1)c1ccco1` [Compound 31, 2-furyl 2-pyridinyl ketone, O-3-N,N-dimethylaminopropyl oxime], the inhibition in vivo at 100 mg/kg was 70% in data set [2] (setting [5]), 30% in data set [2] (setting [6]) and 92% in data set [3] (setting [8]).
Consider `CO/N=C(/c1ccccc1)c1cc[n+]([O-])cc1` [Compound 32, Phenyl 4-pyridinyl ketone, O-methyl oxime, N-oxide (Z-isomer)], for which the values for the inhibition in vivo at 100 mg/kg in data set [2] (setting [5]), in data set [2] (setting [6]) and in data set [3] (setting [8]) were 84%, 32% and 64%, respectively.
As for `CN(C)CCON=C(Cc1ccccn1)c1ccccc1` [phenyl 2-picolinyl ketone, O-dimethylaminoethyl oxime], in data set [1], the “effective dose relative to toxic dose” value is “the effective dose was very close to the toxic dose”.
Regarding `C[N+](C)(C)CCON=C(c1ccccc1)c1ccccn1.[I-]` [phenyl 2-pyridinyl ketone, O-dimethylaminoethyl oxime methiodide], in data set [4], the acetylcholine antagonistic activity result is “showed acetylcholine antagonistic activity”.
